We go through 9 compounds from patent publication US9155743B2, “Bicyclic heterocycle compounds and their uses in therapy” (priority 2011, dated 2015).

Structures can show the parent of a compound that is named as a salt. Where two headings read alike, the source gives them in different places. Some results are limits rather than exact numbers.

In one experiment the test system is XIAP or cIAP1. The experiment is described as follows: Assays using XIAP and cIAP1 (result stated for XIAP or cIAP1). It is filed as binding, human.
In the next experiment the target is cIAP-1 BIR3 domain (Homo sapiens (Human), UniProt Q13490). In words: cIAP-1 in vitro competitive displacement binding assay (fluorescence polarization). To be noted: for IC50: given as ranges, read-out: IC50 or PI cIAP1. (Fluorescence polarisation rises when a labelled molecule tumbles more slowly, as on binding a larger partner.)
The target in a further experiment is XIAP BIR3 domain (Homo sapiens (Human), UniProt P98170). The experiment is described as follows: XIAP in vitro competitive displacement binding assay (fluorescence polarization). The note with it: for IC50: given as ranges, a range also covers PI >= approx 50% at <= the upper concentration, read-out: IC50 or PI Xiap.
The subject of experiment [1] is EVSA-T (human breast carcinoma). The experiment is described as follows: Anti-proliferative activity, Alamar Blue assay, EVSA-T. Format: cell-based.
The mark [2] stands for this setting: AbuRPFK(5&6FAM)-amide probe (Probe B).
Setting [3] is: AVPIK(5&6FAM)-amide probe (Probe A).
Setting [4] is: EVSA-T, 72 h, read-out: EC50 or PI EVSA-T prolif.
[5] abbreviates: EVSA-T, read-out: EC50 or greater than 50% at 10 μM.

`CN[C@@H](C)C(=O)Nc1ccc2c(n1)CN(CC1CCCC1)C(=O)N2c1cccc(Cl)c1` [Example 42, (S)—N-[1-(3-Chloro-phenyl)-3-cyclopentylmethyl-2-oxo-1,2,3,4-tetrahydro-pyrido[3,2-d]pyrimidin-6-yl]-2-methylamino-propionamide hydrochloride]: the IC50 is under 1 µM in the experiment with XIAP or cIAP1 (read-out: IC50 or at least 50% inhibition of the activity at a concentration of 1 μM, against XIAP or cIAP1); under 10 µM with XIAP or cIAP1 (read-out: IC50 or at least 50% inhibition of the activity at a concentration of 10 μM, against XIAP or cIAP1); 0.01 to 1 µM on cIAP-1 BIR3 domain (setting [2]); 0.01 to 1 µM at XIAP BIR3 domain.
Consider `CNC(C)C(=O)Nc1ccc2[nH]c(=O)n(Cc3ccc(Cl)cc3)c2n1` (stereo not drawn) [Example 1, N-[3-(4-Chloro-benzyl)-2-oxo-2,3-dihydro-1H-imidazo[4,5-b]pyridin-5-yl]-2-methylamino-propionamide hydrochloride], for which the inhibition at 30 µM on cIAP-1 BIR3 domain (read-out: IC50 or PI cIAP1 (percentage inhibition)) came to 10%. Moreover, on XIAP BIR3 domain (read-out: IC50 or PI Xiap (percentage inhibition)), the inhibition at 100 µM stood at 28%.
For the compound `CN[C@@H](C)C(=O)Nc1ccc2[nH]c(=O)n(Cc3ccccc3)c2n1` (stereo in doubt) [Example 43, N-(3-Benzyl-2-oxo-2,3-dihydro-1H-imidazo[4,5-b]pyridin-5-yl)-2-methylamino-propionamide hydrochloride], the IC50 was in the range of 10 to 100 µM on cIAP-1 BIR3 domain (setting [3]) and 100 to 300 µM at XIAP BIR3 domain.
Regarding `CN[C@@H](C)C(=O)Nc1ccc2c(n1)NCC(=O)N2` [Example 16, (S)-2-Methylamino-N-(2-oxo-1,2,3,4-tetrahydro-pyrido[2,3-b]pyrazin-6-yl)-propionamide hydrochloride], the IC50 at cIAP-1 BIR3 domain (setting [3]) and on XIAP BIR3 domain was 10 to 100 µM throughout.
In the case of `CN[C@@H](C)C(=O)Nc1ccc2c(n1)OC(C)(CCC(C)C)C(=O)N2c1ccccc1` (stereo partly drawn) [Example 14, (S)-2-Methylamino-N-[3-methyl-3-(3-methyl-butyl)-2-oxo-1-phenyl-2,3-dihydro-1H-pyrido[2,3-b][1,4]oxazin-6-yl]-propionamide hydrochloride], the EC50 was 0.24 µM in experiment [1] (setting [4]) and under 10 µM in experiment [1] (setting [5]). Also, the IC50 at cIAP-1 BIR3 domain (setting [2]) and at XIAP BIR3 domain was 0.01 to 1 µM throughout.
`[2H]C([2H])([2H])[C@]([2H])(N)C(=O)Nc1ccc2c(n1)OC(CC)(CC)C(=O)N2c1ccc(Cl)cc1` [Example 46, (S)-2-Amino-N-[1-(4-chloro-phenyl)-3,3-diethyl-2-oxo-2,3-dihydro-1H-pyrido[2,3-b][1,4]oxazin-6-yl]-propionamide (2,3,3,3-d4) hydrochloride]: the concentration giving a half-maximal response (EC50) was 7.4 µM in experiment [1] (EVSA-T, 72 hours compound incubation, read-out: EC50 or PI EVSA-T prolif) and under 10 µM in experiment [1] (read-out: EC50 or greater than 50% at 10 μM, EVSA-T cell line). For the same compound, the IC50 at XIAP BIR3 domain was 0.01 to 1 µM.
On to `CCC1(CC)Oc2nc(NC(=O)[C@H](C)NC)ccc2N(c2ccc(Cl)cc2)C1=O` [Example 5, (S)—N-[1-(4-Chloro-phenyl)-3,3-diethyl-2-oxo-2,3-dihydro-1H-pyrido[2,3-b][1,4]oxazin-6-yl]-2-methylamino-propionamide hydrochloride], for which the figures for the EC50 in experiment [1] (setting [4]) and in experiment [1] (setting [5]) were 0.089 µM and under 10 µM, respectively. Moreover, on XIAP BIR3 domain, the IC50 is 0.01 to 1 µM.
As to `CCC1(CC)Oc2nc(NC(=O)[C@H](C)N)ccc2N(c2ccc(Cl)cc2)C1=O` [Example 45, (S)-2-Amino-N-[1-(4-chloro-phenyl)-3,3-diethyl-2-oxo-2,3-dihydro-1H-pyrido[2,3-b][1,4]oxazin-6-yl]-propionamide hydrochloride], the results for the IC50 with XIAP or cIAP1 (read-out: IC50 or at least 50% inhibition of the activity at a concentration of 1 μM), with XIAP or cIAP1 (read-out: IC50 or at least 50% inhibition of the activity at a concentration of 10 μM) and on XIAP BIR3 domain were under 1 µM, under 10 µM and 0.01 to 1 µM, respectively. Further, the results for the EC50 in experiment [1] (setting [4]) and in experiment [1] (setting [5]) were 2.9 µM and under 10 µM, respectively.
With `CN[C@@H](C)C(=O)Nc1ccc2c(n1)CNC(=O)N2` [Example 44, (S)-2-Methylamino-N-(2-oxo-1,2,3,4-tetrahydro-pyrido[3,2-d]pyrimidin-6-yl)-propionamide hydrochloride], the IC50 fell in the range of 10 to 100 µM at cIAP-1 BIR3 domain (setting [3]) and 100 to 300 µM at XIAP BIR3 domain.

As a reminder, the inhibition is the share of the control response that was lost under treatment. What is called EC50 is the concentration at which the effect is half-maximal.
